Consider one compound from patent US20020155164A1, “System and method for the prevention of infections in human patients using nitric oxide” (priority 2001, published 2002).

This test relates to bacteria. The experiment in a line: Tests performed in vitro on bacteria. Format: cell-based. Particulars: many types of bacteria. The source says:
The inventors of the instant invention have investigated NO for its use as a sterilizing agent in the prevention and treatment of infections. […] PCT International Application No. PCT/CA99/01123, a published Jun. 2, 2000, discloses a method and an apparatus for the treatment of human respiratory infections by NO inhalation.

Each structure is given as a SMILES string.

For the compound `[N]=O` [NO, nitric oxide], the “effect on growth / killing of bacteria” value was “interfere with the growth of and/or kill many types of bacteria”.
